Key:
[1] = target: Excitatory amino acid transporter 1 (Homo sapiens, UniProt P43003); test: Binding affinity for Excitatory amino acid transporter 1 (EAAT-1) in Glu uptake system
[2] = target: T1, Excitatory amino acid transporter 3 (Homo sapiens, UniProt P43005); test: Binding affinity for Excitatory amino acid transporter 3 (EAAT-3) in Glu uptake system
T1 sequence (P43005 whole entry): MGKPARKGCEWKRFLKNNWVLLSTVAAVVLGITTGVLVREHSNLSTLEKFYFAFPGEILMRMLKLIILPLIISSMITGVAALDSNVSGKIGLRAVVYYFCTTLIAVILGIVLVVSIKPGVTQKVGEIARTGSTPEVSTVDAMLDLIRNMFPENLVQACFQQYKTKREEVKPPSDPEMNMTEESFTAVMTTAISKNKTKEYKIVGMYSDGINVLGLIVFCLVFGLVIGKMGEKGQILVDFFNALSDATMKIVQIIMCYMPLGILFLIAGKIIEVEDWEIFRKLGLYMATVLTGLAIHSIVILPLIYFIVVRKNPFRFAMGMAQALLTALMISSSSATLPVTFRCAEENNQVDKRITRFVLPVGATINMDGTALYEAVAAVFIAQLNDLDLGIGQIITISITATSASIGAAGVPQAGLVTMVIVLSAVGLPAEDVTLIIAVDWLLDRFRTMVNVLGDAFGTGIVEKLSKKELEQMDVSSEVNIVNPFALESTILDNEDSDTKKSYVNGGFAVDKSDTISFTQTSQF

Rattus norvegicus = organism: Rattus norvegicus; test: EC50 value was measured in rat cortical wedge preparation; type: functional
[3] = target: Glutamate receptor ionotropic, AMPA (Rattus norvegicus, UniProt P19490+P19491+P19492+P19493)
[4] = target: Excitatory amino acid transporter 2 (Homo sapiens, UniProt P43004); test: Binding affinity for Excitatory amino acid transporter 2 (EAAT-2) in Glu uptake system
Chain of Excitatory amino acid transporter 2 (P43004 whole entry): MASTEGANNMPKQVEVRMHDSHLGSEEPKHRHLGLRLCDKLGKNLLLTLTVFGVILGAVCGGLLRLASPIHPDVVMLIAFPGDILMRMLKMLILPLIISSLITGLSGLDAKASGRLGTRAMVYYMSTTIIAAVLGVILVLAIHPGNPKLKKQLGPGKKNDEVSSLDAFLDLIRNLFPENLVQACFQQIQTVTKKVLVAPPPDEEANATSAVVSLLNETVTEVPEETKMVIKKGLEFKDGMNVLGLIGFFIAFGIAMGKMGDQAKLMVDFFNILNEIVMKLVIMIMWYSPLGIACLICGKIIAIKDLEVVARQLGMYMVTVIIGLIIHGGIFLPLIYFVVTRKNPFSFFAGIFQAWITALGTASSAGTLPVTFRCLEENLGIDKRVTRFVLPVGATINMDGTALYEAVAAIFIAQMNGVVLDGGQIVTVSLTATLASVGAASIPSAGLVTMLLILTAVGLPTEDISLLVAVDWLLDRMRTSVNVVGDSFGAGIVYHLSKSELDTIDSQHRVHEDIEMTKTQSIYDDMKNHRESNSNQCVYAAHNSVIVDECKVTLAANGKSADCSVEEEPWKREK

Glutamate NMDA receptor = test: Binding affinity for N-methyl-D-aspartate glutamate receptor (NMDA) using [3H]- CPP; type: protein-complex assay, Rattus norvegicus
[5] = target: Glutamate receptor ionotropic, kainate; test: Binding affinity for Ionotropic glutamate receptor using [3H]- kainic acid; type: protein-complex assay, Rattus norvegicus
[6] = Measure of synaptosomal Glu uptake system using [3H]- -D-aspartic acid as radioligand
physchem [7] = test: physchem
physchem [8] = test: physchem; remark: listed apart in the source
physchem [9] = test: physchem; remark: listed apart in the source
[10] = Measure of synaptosomal Glu uptake system using [3H]- -D-aspartic acid as radioligand.; type: functional

Chain of Excitatory amino acid transporter 1 (P43003 whole entry): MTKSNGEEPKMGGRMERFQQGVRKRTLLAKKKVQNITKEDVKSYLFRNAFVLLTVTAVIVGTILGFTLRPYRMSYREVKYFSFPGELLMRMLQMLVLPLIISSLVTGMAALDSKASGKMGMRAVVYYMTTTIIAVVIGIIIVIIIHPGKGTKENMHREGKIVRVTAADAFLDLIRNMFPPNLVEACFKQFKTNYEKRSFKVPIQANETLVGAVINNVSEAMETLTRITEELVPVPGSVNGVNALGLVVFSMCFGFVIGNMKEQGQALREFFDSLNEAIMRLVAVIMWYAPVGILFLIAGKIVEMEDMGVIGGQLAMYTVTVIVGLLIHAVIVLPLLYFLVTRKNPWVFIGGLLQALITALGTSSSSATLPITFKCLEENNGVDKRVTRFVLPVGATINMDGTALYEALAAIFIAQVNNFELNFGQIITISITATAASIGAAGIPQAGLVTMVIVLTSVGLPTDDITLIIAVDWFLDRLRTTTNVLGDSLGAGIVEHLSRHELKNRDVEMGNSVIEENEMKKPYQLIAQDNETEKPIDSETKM

Structure (SMILES): NC(Cc1cnnn1O)C(=O)O (stereo not drawn)
- IC50 [1]: 100 µM
- IC50 [2]: > 1000 µM
- EC50 (Rattus norvegicus): > 1000 µM
- IC50 [3]: 0.15 µM
- IC50 [4]: 300 µM
- IC50 (Glutamate NMDA receptor): > 100 µM
- IC50 [5]: 47 µM
- IC50 [6]: 93 µM

Structure (SMILES): Cc1cnc(CC(N)C(=O)O)n1O (stereo not drawn)
- IC50 [1]: > 1000 µM
- IC50 [2]: > 1000 µM
- EC50 (Rattus norvegicus): > 1000 µM
- IC50 [3]: > 100 µM
- IC50 [4]: > 1000 µM
- IC50 (Glutamate NMDA receptor): > 100 µM
- IC50 [5]: > 100 µM
- IC50 [6]: > 200 µM

Structure (SMILES): Cc1nnn(O)c1CC(N)C(=O)O (stereo not drawn)
- IC50 [1]: > 1000 µM
- IC50 [2]: > 1000 µM
- EC50 (Rattus norvegicus): 15 µM
- pKa (physchem [7]): 1.48
- IC50 [3]: 0.13 µM
- IC50 [4]: 490 µM
- pKa (physchem [8]): 9.24
- IC50 (Glutamate NMDA receptor): > 100 µM
- IC50 [5]: 90 µM
- pKa (physchem [9]): 5.07
- IC50 [6]: > 200 µM

Structure (SMILES): Cc1onc(O)c1CC(N)C(=O)O [(R,S)-AMPA]
- IC50 [1]: > 1000 µM
- IC50 [10]: > 200 µM
- IC50 [2]: > 1000 µM
- pKa (physchem [7]): 1.94
- IC50 [4]: > 1000 µM
- pKa (physchem [9]): 5.12

Structure (SMILES): Cc1cnn(O)c1CC(N)C(=O)O (stereo not drawn)
- IC50 [1]: > 1000 µM
- IC50 [2]: > 1000 µM
- EC50 (Rattus norvegicus): 586 µM
- pKa (physchem [7]): 2.05
- IC50 [3]: 2.6 µM
- IC50 [4]: > 1000 µM
- pKa (physchem [8]): 9.81
- IC50 (Glutamate NMDA receptor): > 100 µM
- IC50 [5]: > 100 µM
- pKa (physchem [9]): 5.89
- IC50 [6]: > 200 µM

Structure (SMILES): Cc1ncc(CC(N)C(=O)O)n1O (stereo not drawn)
- IC50 [1]: > 1000 µM
- IC50 [2]: > 1000 µM
- EC50 (Rattus norvegicus): > 1000 µM
- IC50 [3]: > 100 µM
- IC50 [4]: > 1000 µM
- IC50 (Glutamate NMDA receptor): > 100 µM
- IC50 [5]: > 100 µM
- IC50 [6]: > 200 µM

Structure (SMILES): NC(Cc1ccnn1O)C(=O)O (stereo not drawn)
- IC50 [1]: > 1000 µM
- IC50 [2]: > 1000 µM
- EC50 (Rattus norvegicus): 280 µM
- pKa (physchem [7]): 1.78
- IC50 [3]: 2.7 µM
- IC50 [4]: 430 µM
- pKa (physchem [8]): 9.48
- IC50 (Glutamate NMDA receptor): > 100 µM
- IC50 [5]: > 100 µM
- pKa (physchem [9]): 5.78
- IC50 [6]: > 200 µM

Structure (SMILES): NC(Cc1conc1O)C(=O)O (stereo not drawn)
- IC50 [1]: 270 µM
- IC50 [2]: > 1000 µM
- EC50 (Rattus norvegicus): 900 µM
- IC50 [3]: 0.27 µM
- IC50 [4]: 240 µM
- IC50 (Glutamate NMDA receptor): > 100 µM
- IC50 [5]: > 100 µM
- IC50 [6]: > 200 µM

Structure (SMILES): NC(Cc1nccn1O)C(=O)O (stereo not drawn)
- IC50 [1]: > 1000 µM
- IC50 [2]: > 1000 µM
- EC50 (Rattus norvegicus): > 1000 µM
- IC50 [3]: > 100 µM
- IC50 [4]: > 1000 µM
- IC50 (Glutamate NMDA receptor): > 100 µM
- IC50 [5]: > 100 µM
- IC50 [6]: > 200 µM

Structure (SMILES): NC(Cc1cncn1O)C(=O)O (stereo not drawn)
- IC50 [1]: > 1000 µM
- IC50 [2]: > 1000 µM
- EC50 (Rattus norvegicus): > 1000 µM
- IC50 [3]: > 100 µM
- IC50 [4]: > 1000 µM
- IC50 (Glutamate NMDA receptor): > 100 µM
- IC50 [5]: > 100 µM
- IC50 [6]: > 200 µM

Structure (SMILES): Cc1ncn(O)c1CC(N)C(=O)O (stereo not drawn)
- IC50 [1]: > 1000 µM
- IC50 [2]: > 1000 µM
- EC50 (Rattus norvegicus): > 1000 µM
- pKa (physchem [7]): 2.81
- IC50 [3]: > 100 µM
- IC50 [4]: > 1000 µM
- pKa (physchem [8]): 10.2
- IC50 (Glutamate NMDA receptor): > 100 µM
- IC50 [5]: > 100 µM
- pKa (physchem [9]): 8.82
- IC50 [6]: > 200 µM

Source: ChEMBL document CHEMBL1135397, “Novel 1-hydroxyazole bioisosteres of glutamic acid. Synthesis, protolytic properties, and pharmacology” (J Med Chem, 2002)
